In ChEMBL document CHEMBL5576078, “Discovery of a potent, orally available furopyridine derivative as a novel selective bromodomain and extra-terminal domain (BET)-first bromodomain (BD1) inhibitor” (Bioorg Med Chem Lett, 2024):

Columns and labels:
[1] = Inhibition of LPS induced IL-6 production in HMVEC cells; settings: Homo sapiens
[2] = biological target: T1, Bromodomain-containing protein 4 (Homo sapiens, UniProt O60885); experiment: Inhibition of BRD4 BD1 (unknown origin) by TR-FRET assay
[3] = biological target: T1, Bromodomain-containing protein 4; experiment: Inhibition of BRD4 BD2 (unknown origin) by TR-FRET assay
[4] = biological target: T1, Bromodomain-containing protein 4; experiment: Inhibition of BRD4 BD1 (unknown origin)

Row | SMILES | IC50 [1] [nM] | IC50 [2] [nM] | IC50 [3] [nM] | IC50 [4] [nM]
1 | Cc1sc2c(c1C)C(c1ccc(Cl)cc1)=N[C@@H](CC(=O)OC(C)(C)C)c1nnc(C)n1-2 | 45 | – | – | –
2 | C[C@@H]1CN(S(C)(=O)=O)CCN1Cc1cc2c(=O)n(C)cc(-c3cccc(NS(C)(=O)=O)c3)c2o1 | – | 27 | 1500 | –
3 | C[C@@H]1CN(S(C)(=O)=O)CCN1Cc1cc2c(=O)n(C)cc(-c3cc(NS(C)(=O)=O)ccc3OCC3CC3)c2o1 | – | 11 | 20 | –
4 | C[C@@H]1CN(S(C)(=O)=O)CCN1Cc1cc2c(=O)n(C)cc(-c3nc(Cl)c(Cl)n3CC3CCOCC3)c2o1 | – | 150 | 8800 | –
5 | C[C@@H]1CN(S(C)(=O)=O)CCN1Cc1cc2c(=O)n(C)cc(-c3nccnc3OCC3CC3)c2o1 | – | 18 | 1600 | –
6 | C[C@@H]1CN(S(C)(=O)=O)CCN1Cc1cc2c(=O)n(C)cc(-c3cc(Cl)nn3CC3CCOCC3)c2o1 | – | 180 | 3600 | –
7 | C[C@@H]1CN(S(C)(=O)=O)CCN1Cc1cc2c(=O)n(C)cc(-c3nc(Cl)cn3CC3CCOCC3)c2o1 | – | 53 | > 10000 | –
8 | CC(=O)Nc1cc(-c2cn(C)c(=O)c3cc(CN4CCN(S(C)(=O)=O)C[C@H]4C)oc23)ccn1 | – | 63 | 650 | ≤ 100
